Two compounds from ChEMBL document CHEMBL4507276 (2021) can be followed below.

Assay [1] deals with T1, NUAK family SNF1-like kinase 1 (Homo sapiens) (UniProt O60285).
T1 sequence (whole entry): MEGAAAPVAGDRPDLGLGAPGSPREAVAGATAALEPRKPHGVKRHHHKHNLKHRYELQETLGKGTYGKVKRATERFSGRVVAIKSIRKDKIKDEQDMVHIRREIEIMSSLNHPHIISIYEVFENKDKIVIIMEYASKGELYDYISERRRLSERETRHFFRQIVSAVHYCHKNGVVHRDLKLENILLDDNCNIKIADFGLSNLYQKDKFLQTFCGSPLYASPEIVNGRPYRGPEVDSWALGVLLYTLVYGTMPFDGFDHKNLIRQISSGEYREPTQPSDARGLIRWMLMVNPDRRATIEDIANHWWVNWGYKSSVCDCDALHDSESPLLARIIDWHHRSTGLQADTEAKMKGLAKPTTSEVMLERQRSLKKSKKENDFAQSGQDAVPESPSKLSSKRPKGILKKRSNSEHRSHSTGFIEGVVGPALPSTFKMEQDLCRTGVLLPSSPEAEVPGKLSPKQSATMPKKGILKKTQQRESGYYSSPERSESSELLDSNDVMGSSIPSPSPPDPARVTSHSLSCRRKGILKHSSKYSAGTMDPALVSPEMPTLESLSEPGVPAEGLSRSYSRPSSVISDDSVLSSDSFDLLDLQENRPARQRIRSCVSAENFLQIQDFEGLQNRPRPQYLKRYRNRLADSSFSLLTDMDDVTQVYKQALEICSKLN
Conditions: Compound concentration 1000.0 nM.

Assay [2] deals with Platelet-derived growth factor receptor alpha (Homo sapiens) (UniProt P16234). Conditions: Compound concentration 1000.0 nM.
In assay [3] the target is Phosphatidylinositol 4,5-bisphosphate 3-kinase catalytic subunit gamma isoform (Homo sapiens) (UniProt P48736). Conditions: Compound concentration 1000.0 nM.
Assay [4] deals with Serine/threonine-protein kinase 24 (Homo sapiens) (UniProt Q9Y6E0). Conditions: Compound concentration 1000.0 nM.
In assay [5] the target is Testis-specific serine/threonine-protein kinase 1 (Homo sapiens) (UniProt Q9BXA7). Conditions: Compound concentration 1000.0 nM.
In assay [6] the target is T2, Protein kinase C iota type (Homo sapiens) (UniProt P41743).
T2 sequence (whole entry): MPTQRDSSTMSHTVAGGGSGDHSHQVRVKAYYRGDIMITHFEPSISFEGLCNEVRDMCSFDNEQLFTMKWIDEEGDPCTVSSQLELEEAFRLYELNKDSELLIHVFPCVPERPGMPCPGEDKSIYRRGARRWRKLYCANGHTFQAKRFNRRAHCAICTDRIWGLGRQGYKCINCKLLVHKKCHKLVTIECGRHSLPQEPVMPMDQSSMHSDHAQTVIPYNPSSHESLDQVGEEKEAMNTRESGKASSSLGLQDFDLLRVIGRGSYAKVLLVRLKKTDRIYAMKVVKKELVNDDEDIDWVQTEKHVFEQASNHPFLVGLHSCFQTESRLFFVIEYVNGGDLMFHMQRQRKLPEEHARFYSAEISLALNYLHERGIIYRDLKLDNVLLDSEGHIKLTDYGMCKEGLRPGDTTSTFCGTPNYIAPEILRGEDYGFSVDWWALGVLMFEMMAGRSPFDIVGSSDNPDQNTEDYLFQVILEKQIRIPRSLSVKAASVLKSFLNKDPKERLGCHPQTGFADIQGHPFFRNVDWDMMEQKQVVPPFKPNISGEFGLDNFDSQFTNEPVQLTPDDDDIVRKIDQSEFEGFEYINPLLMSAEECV
Conditions: Compound concentration 1000.0 nM.

The target in assay [7] is Aurora kinase B (Homo sapiens) (UniProt Q96GD4). Conditions: Compound concentration 1000.0 nM.
The target of assay [8] is Dual specificity testis-specific protein kinase 1 (Homo sapiens) (UniProt Q15569). Conditions: Compound concentration 1000.0 nM.
Assay [9] deals with Serine/threonine-protein kinase LATS2 (Homo sapiens) (UniProt Q9NRM7). Conditions: Compound concentration 1000.0 nM.
Assay [10] concerns the target Serine/threonine-protein kinase TBK1 (Homo sapiens) (UniProt Q9UHD2). Conditions: Compound concentration 1000.0 nM.
Assay [11] has as its target Non-receptor tyrosine-protein kinase TYK2 (Homo sapiens) (UniProt P29597). Conditions: Compound concentration 1000.0 nM.
Assay [12] concerns the target Mu-type opioid receptor (Homo sapiens) (UniProt P35372). Conditions: Compound concentration 10.0 uM.
For assay [13], the system named is Receptor-type tyrosine-protein kinase FLT3 (Homo sapiens), P36888 [R834Q]. Conditions: Compound concentration 1000.0 nM.
Assay [14] has as its target Macrophage colony-stimulating factor 1 receptor (Homo sapiens) (UniProt P07333). Conditions: Compound concentration 1000.0 nM.
The target of assay [15] is T3, Serine/threonine-protein kinase 4 (Homo sapiens) (UniProt Q13043).
T3 sequence (whole entry): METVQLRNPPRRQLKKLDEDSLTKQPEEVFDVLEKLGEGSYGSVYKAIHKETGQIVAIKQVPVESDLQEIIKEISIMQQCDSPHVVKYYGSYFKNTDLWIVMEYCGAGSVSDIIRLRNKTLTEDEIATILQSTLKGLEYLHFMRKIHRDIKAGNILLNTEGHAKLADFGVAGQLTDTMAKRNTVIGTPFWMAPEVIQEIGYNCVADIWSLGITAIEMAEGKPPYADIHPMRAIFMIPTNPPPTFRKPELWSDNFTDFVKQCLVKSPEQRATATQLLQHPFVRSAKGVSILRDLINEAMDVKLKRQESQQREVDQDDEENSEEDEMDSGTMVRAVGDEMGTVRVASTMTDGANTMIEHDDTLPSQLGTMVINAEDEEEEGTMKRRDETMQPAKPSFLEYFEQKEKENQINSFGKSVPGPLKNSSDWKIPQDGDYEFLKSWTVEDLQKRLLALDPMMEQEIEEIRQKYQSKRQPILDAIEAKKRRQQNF
Conditions: Compound concentration 1000.0 nM.

The test system of assay [16] is Leucine-rich repeat serine/threonine-protein kinase 2 (Homo sapiens), Q5S007 [G2019S]. Conditions: Compound concentration 1000.0 nM.
The target in assay [17] is Tyrosine-protein kinase Lyn (Homo sapiens) (UniProt P07948). Conditions: Compound concentration 1000.0 nM.
Sequence of Tyrosine-protein kinase Lyn (Homo sapiens) (P07948 2-512 limits assumed): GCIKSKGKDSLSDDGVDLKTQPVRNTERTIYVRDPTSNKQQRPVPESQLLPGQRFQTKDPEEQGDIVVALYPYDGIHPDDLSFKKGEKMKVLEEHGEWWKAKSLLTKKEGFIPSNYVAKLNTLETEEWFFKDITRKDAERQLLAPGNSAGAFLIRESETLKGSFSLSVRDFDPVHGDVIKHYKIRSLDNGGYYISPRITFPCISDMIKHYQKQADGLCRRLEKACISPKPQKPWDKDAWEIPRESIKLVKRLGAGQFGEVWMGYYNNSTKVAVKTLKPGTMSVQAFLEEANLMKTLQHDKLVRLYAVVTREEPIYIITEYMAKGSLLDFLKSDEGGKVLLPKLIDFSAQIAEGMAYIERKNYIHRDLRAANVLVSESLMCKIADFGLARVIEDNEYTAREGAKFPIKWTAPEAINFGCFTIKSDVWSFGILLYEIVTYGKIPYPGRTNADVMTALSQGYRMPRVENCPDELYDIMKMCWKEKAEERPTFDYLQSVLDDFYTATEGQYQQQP

Sequence of Leucine-rich repeat serine/threonine-protein kinase 2 (Homo sapiens), Q5S007 [G2019S] (Q5S007 whole entry G2019S): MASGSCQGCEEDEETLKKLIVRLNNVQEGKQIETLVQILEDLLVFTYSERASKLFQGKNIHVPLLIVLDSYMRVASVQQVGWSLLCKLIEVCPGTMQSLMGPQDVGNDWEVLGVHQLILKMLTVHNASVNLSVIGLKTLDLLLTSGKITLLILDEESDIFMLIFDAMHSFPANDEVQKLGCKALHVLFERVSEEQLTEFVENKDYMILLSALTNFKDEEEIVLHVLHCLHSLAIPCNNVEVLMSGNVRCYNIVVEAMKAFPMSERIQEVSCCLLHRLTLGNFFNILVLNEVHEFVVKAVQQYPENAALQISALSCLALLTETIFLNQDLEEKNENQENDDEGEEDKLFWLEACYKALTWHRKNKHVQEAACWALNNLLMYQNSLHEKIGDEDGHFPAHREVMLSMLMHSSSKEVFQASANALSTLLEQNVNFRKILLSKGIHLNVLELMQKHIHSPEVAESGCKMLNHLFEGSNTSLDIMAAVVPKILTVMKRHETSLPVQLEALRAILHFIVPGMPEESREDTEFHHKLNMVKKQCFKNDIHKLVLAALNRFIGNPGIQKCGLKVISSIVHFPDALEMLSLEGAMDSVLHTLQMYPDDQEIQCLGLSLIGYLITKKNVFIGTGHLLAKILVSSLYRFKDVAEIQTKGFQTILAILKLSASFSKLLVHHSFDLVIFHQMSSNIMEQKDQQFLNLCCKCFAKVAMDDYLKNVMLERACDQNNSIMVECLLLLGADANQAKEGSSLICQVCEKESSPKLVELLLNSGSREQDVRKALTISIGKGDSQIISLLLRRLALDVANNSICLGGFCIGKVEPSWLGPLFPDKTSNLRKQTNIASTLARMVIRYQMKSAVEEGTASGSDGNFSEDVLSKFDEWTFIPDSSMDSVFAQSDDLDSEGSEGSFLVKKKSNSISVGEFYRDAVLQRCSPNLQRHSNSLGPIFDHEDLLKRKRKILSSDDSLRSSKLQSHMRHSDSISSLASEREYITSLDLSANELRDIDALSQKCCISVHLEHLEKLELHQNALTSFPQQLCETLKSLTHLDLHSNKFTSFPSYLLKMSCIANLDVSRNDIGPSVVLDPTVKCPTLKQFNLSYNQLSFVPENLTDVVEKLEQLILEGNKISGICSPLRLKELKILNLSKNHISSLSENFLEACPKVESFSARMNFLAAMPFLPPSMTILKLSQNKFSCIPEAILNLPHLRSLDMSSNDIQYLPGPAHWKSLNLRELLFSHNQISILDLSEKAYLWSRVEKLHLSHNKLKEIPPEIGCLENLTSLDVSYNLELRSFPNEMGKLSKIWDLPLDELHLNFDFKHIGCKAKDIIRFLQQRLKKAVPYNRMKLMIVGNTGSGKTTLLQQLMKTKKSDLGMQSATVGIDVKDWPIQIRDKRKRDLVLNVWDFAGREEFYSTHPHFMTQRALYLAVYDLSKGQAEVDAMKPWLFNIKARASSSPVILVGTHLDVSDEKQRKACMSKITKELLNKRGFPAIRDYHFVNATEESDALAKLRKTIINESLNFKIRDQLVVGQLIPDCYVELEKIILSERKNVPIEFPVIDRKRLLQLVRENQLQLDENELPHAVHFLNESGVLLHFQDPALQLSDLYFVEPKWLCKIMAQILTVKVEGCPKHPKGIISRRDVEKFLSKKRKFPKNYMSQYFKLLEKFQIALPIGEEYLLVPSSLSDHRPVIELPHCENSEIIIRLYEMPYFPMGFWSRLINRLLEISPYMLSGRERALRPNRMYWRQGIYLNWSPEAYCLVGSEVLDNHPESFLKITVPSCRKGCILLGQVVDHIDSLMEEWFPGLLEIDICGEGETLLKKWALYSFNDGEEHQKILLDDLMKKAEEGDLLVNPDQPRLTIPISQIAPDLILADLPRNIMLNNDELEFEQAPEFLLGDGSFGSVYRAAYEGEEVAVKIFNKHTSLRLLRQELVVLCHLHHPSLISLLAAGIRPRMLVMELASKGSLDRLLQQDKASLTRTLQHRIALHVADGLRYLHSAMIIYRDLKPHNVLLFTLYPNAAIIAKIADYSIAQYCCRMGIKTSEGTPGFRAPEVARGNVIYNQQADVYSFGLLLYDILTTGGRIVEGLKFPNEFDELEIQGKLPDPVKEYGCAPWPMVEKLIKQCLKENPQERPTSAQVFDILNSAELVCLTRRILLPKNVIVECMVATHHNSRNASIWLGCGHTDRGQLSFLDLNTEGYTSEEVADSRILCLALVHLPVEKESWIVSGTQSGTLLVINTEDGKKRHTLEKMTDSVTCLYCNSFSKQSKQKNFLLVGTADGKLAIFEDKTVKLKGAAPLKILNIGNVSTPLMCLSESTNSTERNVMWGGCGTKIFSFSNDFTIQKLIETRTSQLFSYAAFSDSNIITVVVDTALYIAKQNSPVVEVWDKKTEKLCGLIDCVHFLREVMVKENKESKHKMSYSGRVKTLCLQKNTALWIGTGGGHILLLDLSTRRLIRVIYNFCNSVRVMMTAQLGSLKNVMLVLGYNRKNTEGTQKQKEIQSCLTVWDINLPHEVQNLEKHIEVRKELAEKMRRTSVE
Sequence of Phosphatidylinositol 4,5-bisphosphate 3-kinase catalytic subunit gamma isoform (Homo sapiens) (P48736 whole entry, looked up, canonical isoform): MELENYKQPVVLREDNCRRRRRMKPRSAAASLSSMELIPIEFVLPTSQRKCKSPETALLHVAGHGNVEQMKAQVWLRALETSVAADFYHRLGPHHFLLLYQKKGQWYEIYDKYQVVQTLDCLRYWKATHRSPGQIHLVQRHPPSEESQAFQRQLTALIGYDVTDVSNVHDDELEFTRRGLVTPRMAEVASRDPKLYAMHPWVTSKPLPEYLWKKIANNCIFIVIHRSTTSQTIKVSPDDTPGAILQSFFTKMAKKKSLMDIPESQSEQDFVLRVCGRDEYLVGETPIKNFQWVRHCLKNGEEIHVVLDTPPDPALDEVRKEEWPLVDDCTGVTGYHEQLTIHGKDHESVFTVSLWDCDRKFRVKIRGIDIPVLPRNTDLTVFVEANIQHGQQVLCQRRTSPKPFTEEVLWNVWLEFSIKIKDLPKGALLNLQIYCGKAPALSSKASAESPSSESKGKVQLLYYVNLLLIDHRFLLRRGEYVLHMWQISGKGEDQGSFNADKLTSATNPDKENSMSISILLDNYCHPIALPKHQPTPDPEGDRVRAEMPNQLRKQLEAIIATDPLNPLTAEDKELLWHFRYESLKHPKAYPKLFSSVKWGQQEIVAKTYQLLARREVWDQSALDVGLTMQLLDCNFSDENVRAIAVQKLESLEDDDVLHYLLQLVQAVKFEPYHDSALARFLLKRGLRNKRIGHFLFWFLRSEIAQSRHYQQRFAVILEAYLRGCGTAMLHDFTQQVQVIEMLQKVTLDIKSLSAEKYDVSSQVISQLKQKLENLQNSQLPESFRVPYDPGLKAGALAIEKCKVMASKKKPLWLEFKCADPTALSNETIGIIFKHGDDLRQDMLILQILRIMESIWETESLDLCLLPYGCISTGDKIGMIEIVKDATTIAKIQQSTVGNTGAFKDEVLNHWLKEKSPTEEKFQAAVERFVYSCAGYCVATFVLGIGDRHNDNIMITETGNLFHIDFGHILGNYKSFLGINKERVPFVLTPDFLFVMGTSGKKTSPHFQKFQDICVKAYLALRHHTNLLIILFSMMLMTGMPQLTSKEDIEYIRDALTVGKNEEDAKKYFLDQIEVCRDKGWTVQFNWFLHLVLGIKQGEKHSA
Sequence of Aurora kinase B (Homo sapiens) (Q96GD4 whole entry): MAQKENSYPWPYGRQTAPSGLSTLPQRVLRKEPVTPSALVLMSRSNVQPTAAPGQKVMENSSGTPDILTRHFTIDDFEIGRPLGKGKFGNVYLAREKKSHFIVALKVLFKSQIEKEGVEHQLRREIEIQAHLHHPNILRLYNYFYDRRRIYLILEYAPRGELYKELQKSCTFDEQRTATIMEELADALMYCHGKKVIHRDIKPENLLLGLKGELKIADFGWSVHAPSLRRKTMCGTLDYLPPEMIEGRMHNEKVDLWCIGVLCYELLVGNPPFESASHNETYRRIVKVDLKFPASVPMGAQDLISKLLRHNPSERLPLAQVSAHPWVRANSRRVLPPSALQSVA
Sequence of Serine/threonine-protein kinase 24 (Homo sapiens) (Q9Y6E0 whole entry, looked up): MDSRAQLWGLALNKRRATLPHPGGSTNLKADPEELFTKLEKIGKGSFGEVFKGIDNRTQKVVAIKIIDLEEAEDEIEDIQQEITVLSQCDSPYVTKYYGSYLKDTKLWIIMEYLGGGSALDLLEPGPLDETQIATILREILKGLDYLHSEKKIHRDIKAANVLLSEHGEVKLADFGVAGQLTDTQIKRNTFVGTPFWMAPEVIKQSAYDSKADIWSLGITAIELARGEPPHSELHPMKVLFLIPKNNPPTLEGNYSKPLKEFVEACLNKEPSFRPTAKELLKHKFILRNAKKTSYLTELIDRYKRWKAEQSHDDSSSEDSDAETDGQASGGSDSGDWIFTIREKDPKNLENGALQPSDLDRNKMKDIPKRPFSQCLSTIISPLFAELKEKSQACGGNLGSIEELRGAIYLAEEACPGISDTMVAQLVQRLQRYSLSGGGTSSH

As to `CN(C)C(=O)Cn1cc(-c2nc(C3(c4ccc(-c5cnc(N)nc5)cc4)CC3)no2)cn1` [BI 0153], the residual activity in assay [1] is 82%; in assay [2], 83%; in [3], 85%; in assay [4] it was 100%; in assay [5] it was 100%; in assay [6], 100%. Besides, the residual activity in assay [7] was 41%; in assay [8] it was 94%; in [9], 46%; in assay [10] it was 87%; in [11], 100%; in [13] it was 90%. In addition, the residual activity was 84% in assay [14], 90% in [15], 100% in assay [16] and 79% in assay [17]. For the same compound, the inhibition in assay [12] is 12.6%.
As to `CN(C)C(=O)Cn1cc(-c2nc([C@@](C)(c3ccc(-c4cnc(N)nc4)cc3)C3CC3)no2)cn1` [BI 665915], the residual activity in [1] was 100%; in [2], 100%; in assay [3], 72%; in assay [4] it was 100%; in assay [5], 100%; in assay [6] it was 93%. Besides, the residual activity in assay [7] was 96%; in assay [8] it was 90%; in assay [9] it was 74%; in [10] it was 85%; in [11], 75%; in assay [13], 87%. Further, the residual activity in [14] was 96%; in assay [15] it was 90%; in assay [16] it was 100%; in assay [17], 87%. The inhibition in assay [12] was 4.55%.
